# Active and inactive are the calls of the source. The calls are words filed in the database; no cut-off is given here.
# What was measured:
# [1] = target: T1, 3',5'-cyclic-AMP phosphodiesterase 4D (Homo sapiens, UniProt Q08499); assay: Inhibition of human recombinant PDE4D3 expressed in baculoviral system using cAMP as substrate at 10 uM by fluorescence polarization assay relative to control
# [2] = target: 3',5'-cyclic-AMP phosphodiesterase 4B (Homo sapiens) (UniProt Q07343); assay: Inhibition of human recombinant PDE4B2 expressed in baculoviral system using cAMP as substrate at 10 uM by fluorescence polarization assay relative to control
# [3] = target: 3',5'-cyclic-AMP phosphodiesterase 4A (Homo sapiens) (UniProt P27815); assay: Inhibition of human recombinant PDE4A4 expressed in baculoviral system using cAMP as substrate at 10 uM by fluorescence polarization assay relative to control
# [4] = Cytotoxicity against human HTLA-230 cells at 100 uM after 24 hrs by lactate dehydrogenase release assay (reference value: 0.67 +/- 0.24%); type: cell-based; conditions: htla-230, 24 h
# [5] = Genotoxicity in human HTLA-230 cells assessed as gamma-H2AX production at 100 uM after 24 hrs by Western blot analysis; type: toxicity, cell-based; conditions: htla-230, 24 h
# [6] = target: T1, 3',5'-cyclic-AMP phosphodiesterase 4D; assay: Inhibition of human recombinant PDE4D3 expressed in baculoviral system using cAMP as substrate by fluorescence polarization assay
# Mus musculus [7] = assay: Toxicity in mouse assessed as sedative effect by measuring reduction of total distance traveled at 10 mg/kg, po measured over 60 mins by open-field test; type: organism-based; conditions: in vivo, 1 h
# [8] = Drug uptake in BALB/c mouse brain at 10 mg/kg, sc measured at 1 hr by LC-MS/MS analysis; type: ADME, organism-based; conditions: read-out: Drug uptake
# [9] = Drug uptake in BALB/c mouse brain at 10 mg/kg, sc measured at 0.67 hrs by LC-MS/MS analysis; type: ADME, organism-based; conditions: read-out: Drug uptake
# [10] = Cmax in BALB/c mouse brain at 10 mg/kg, sc by LC-MS/MS analysis; type: ADME, organism-based; set-up: dose 10 mg/kg, route subcutaneous
# [11] = Plasma concentration in BALB/c mouse at 10 mg/kg, sc measured at 5 hrs by LC-MS/MS analysis; type: ADME, organism-based
# [12] = Plasma concentration in BALB/c mouse at 10 mg/kg, sc measured at 3 hrs by LC-MS/MS analysis; type: ADME, organism-based
# [13] = Elimination half life in BALB/c mouse plasma at 10 mg/kg, sc by LC-MS/MS analysis; type: ADME, organism-based; conditions: read-out: beta t1/2 (converted)
# [14] = Drug uptake in BALB/c mouse brain at 10 mg/kg, sc measured at 0.33 hrs by LC-MS/MS analysis; type: ADME, organism-based; conditions: read-out: Drug uptake
# [15] = Cmax in BALB/c mouse plasma at 10 mg/kg, sc by LC-MS/MS analysis; type: ADME, organism-based; set-up: dose 10 mg/kg, route subcutaneous
# [16] = Plasma concentration in BALB/c mouse at 10 mg/kg, sc measured at 0.67 hrs by LC-MS/MS analysis; type: ADME, organism-based
# [17] = Tmax in BALB/c mouse plasma at 10 mg/kg, sc by LC-MS/MS analysis; type: ADME, organism-based
# [18] = Drug uptake in BALB/c mouse brain at 10 mg/kg, sc measured at 5 hrs by LC-MS/MS analysis; type: ADME, organism-based; conditions: read-out: Drug uptake
# [19] = Effect on cAMP level in human HTLA-230 cells at 100 uM after 10 mins by enzyme immunoassay; type: ADME, cell-based; conditions: htla-230, 10 min
# [20] = AUC (0 to t) in BALB/c mouse plasma at 10 mg/kg, sc by LC-MS/MS analysis; type: ADME, organism-based
# [21] = target: T1, 3',5'-cyclic-AMP phosphodiesterase 4D; assay: Inhibition of PDE4D in human HTLA-230 cells assessed as increase in forskolin-induced cAMP accumulation at 100 uM pretreated for 10 mins followed by forskolin induction measured after 20 mins by enzyme immunoassay; type: cell-based
# [22] = Plasma concentration in BALB/c mouse at 10 mg/kg, sc measured at 2 hrs by LC-MS/MS analysis; type: ADME, organism-based
# [23] = Plasma concentration in BALB/c mouse at 10 mg/kg, sc measured at 0.17 hrs by LC-MS/MS analysis; type: ADME, organism-based
# [24] = Drug uptake in BALB/c mouse brain at 10 mg/kg, sc measured at 2 hrs by LC-MS/MS analysis; type: ADME, organism-based; conditions: read-out: Drug uptake
# [25] = Ratio of AUC (0 to t) in BALB/c mouse brain to AUC (0 to t) in BALB/c mouse plasma at 10 mg/kg, sc by LC-MS/MS analysis; type: ADME, organism-based; conditions: read-out: Ratio AUC
# Brain = assay: AUC (0 to t) in BALB/c mouse brain at 10 mg/kg, sc by LC-MS/MS analysis; type: ADME, organism-based; conditions: in vivo
# [26] = Plasma concentration in BALB/c mouse at 10 mg/kg, sc measured at 0.33 hrs by LC-MS/MS analysis; type: ADME, organism-based
# [27] = Drug uptake in BALB/c mouse brain at 10 mg/kg, sc measured at 3 hrs by LC-MS/MS analysis; type: ADME, organism-based; conditions: read-out: Drug uptake
# [28] = Drug uptake in BALB/c mouse brain at 10 mg/kg, sc measured at 0.17 hrs by LC-MS/MS analysis; type: ADME, organism-based; conditions: read-out: Drug uptake
# [29] = Elimination half life in BALB/c mouse brain at 10 mg/kg, sc by LC-MS/MS analysis; type: ADME, organism-based; conditions: read-out: beta t1/2 (converted)
# [30] = Plasma concentration in BALB/c mouse at 10 mg/kg, sc measured at 1 hr by LC-MS/MS analysis; type: ADME, organism-based
# Mus musculus [31] = assay: Toxicity in mouse assessed as sedative effect by measuring prolongation of immobility time at 10 mg/kg, po measured over 60 mins by open-field test; type: organism-based; conditions: in vivo, 1 h
# [32] = Tmax in BALB/c mouse brain at 10 mg/kg, sc by LC-MS/MS analysis; type: ADME, organism-based
# [33] = Cytotoxicity against human HTLA-230 cells at 10 uM after 24 hrs by lactate dehydrogenase release assay (reference value: 0.67 +/- 0.24%); type: cell-based; conditions: htla-230, 24 h
# Chain of 3',5'-cyclic-AMP phosphodiesterase 4A (Homo sapiens) (P27815 whole entry): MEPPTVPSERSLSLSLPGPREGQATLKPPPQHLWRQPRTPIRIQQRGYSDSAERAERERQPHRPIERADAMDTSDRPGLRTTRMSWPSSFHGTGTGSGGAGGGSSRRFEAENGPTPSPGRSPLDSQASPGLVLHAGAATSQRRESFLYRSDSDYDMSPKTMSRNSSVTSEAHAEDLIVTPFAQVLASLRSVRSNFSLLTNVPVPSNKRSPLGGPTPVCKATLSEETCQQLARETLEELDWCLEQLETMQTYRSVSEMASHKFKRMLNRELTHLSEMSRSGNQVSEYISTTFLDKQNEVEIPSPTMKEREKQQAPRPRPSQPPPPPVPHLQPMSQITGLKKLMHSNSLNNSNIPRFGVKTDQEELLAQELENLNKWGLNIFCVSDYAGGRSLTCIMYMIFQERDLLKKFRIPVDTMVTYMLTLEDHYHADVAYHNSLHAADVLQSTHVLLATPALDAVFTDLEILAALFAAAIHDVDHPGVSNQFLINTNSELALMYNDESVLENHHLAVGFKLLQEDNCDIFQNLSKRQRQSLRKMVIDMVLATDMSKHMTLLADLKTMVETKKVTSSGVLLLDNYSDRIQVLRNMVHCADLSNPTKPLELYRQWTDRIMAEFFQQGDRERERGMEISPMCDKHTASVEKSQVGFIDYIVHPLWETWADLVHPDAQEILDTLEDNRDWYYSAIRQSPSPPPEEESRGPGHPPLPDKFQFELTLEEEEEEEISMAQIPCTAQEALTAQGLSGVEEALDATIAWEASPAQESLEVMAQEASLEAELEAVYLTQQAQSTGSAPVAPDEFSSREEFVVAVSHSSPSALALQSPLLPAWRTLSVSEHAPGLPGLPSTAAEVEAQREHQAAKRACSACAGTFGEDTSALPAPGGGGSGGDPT
# Chain of 3',5'-cyclic-AMP phosphodiesterase 4B (Homo sapiens) (Q07343 whole entry): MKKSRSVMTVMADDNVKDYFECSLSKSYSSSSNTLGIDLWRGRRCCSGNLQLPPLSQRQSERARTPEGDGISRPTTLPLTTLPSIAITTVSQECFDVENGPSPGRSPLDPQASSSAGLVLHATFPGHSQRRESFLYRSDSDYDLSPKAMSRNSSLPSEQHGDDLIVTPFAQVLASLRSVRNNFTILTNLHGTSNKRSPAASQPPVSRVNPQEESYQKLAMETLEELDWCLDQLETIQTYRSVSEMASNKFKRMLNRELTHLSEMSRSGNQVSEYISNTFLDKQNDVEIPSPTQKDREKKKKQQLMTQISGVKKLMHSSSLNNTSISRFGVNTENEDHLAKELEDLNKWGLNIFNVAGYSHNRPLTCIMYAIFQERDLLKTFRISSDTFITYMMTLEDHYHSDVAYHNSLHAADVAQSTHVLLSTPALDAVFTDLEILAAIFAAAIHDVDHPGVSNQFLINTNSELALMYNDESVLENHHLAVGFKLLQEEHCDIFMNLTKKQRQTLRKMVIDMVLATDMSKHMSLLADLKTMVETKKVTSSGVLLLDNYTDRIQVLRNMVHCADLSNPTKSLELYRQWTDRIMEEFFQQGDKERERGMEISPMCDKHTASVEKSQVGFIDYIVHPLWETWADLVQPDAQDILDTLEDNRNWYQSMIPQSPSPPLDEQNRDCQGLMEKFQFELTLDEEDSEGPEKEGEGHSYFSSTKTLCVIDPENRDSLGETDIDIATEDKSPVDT
# T1 sequence (Q08499 whole entry): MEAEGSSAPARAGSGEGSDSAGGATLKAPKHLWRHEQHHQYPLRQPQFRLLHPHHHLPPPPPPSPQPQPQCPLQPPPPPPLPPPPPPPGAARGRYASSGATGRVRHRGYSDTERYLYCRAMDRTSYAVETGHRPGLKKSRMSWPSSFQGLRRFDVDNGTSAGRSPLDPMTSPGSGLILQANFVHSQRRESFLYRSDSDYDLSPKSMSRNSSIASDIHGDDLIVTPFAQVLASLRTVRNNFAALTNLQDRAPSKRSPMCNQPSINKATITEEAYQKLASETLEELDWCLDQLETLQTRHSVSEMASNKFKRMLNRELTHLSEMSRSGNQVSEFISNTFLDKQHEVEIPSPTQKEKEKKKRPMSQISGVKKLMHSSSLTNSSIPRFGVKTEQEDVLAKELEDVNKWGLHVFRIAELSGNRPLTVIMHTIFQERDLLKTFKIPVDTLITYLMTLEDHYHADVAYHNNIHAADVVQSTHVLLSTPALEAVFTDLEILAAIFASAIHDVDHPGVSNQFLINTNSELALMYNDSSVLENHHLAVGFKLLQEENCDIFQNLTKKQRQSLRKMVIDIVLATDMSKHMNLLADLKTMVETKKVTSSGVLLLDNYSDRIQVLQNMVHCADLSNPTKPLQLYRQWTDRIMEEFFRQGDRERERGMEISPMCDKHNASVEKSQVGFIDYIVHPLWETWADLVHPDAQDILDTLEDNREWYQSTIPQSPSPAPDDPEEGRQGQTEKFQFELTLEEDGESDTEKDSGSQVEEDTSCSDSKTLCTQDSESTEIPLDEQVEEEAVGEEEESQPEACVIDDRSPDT
compound,measurement,setting,value
CC1CN(C(=O)CCO/N=C/c2ccc(OC(F)F)c(OC3CCCC3)c2)CC(C)O1 (stereo not given),inhibition,[1],63%
same,inhibition,[2],37%
same,inhibition,[3],34%
same,Activity,[4],0.01%
same,Activity,[5],Non-toxic
same,IC50,[6],470 nM
CC1CN(C(=O)CO/N=C/c2ccc(OC(F)F)c(OC3CCCC3)c2)CC(C)O1 (stereo not given),inhibition,[1],74%
same,Activity,Mus musculus [7],Non-toxic
same,concentration at 1 h,[8],303 ng/g
same,concentration at 0.67 h,[9],453 ng/g
same,Cmax,[10],1570 ng/g
same,inhibition,[2],29%
same,concentration at 5 h,[11],67.2 ng/mL
same,concentration at 3 h,[12],11.6 ng/mL
same,half-life,[13],42 min
same,inhibition,[3],32%
same,concentration at 0.33 h,[14],790 ng/g
same,Cmax,[15],4410 ng/mL
same,concentration at 0.67 h,[16],1090 ng/mL
same,Tmax,[17],10.2 min
same,concentration at 5 h,[18],2.94 ng/g
same,Activity,[19],Non-toxic
same,Activity,[4],0.01%
same,AUC(0-t),[20],1220 ng·h/mL
same,inhibition,[21],Active
same,concentration at 2 h,[22],217 ng/mL
same,concentration at 0.17 h,[23],2160 ng/mL
same,concentration at 2 h,[24],96 ng/g
same,Kp,[25],0.429
same,AUCt,Brain,391 ng·h/g
same,concentration at 0.33 h,[26],1740 ng/mL
same,Activity,[5],Non-toxic
same,concentration at 3 h,[27],5.45 ng/g
same,IC50,[6],4840 nM
same,concentration at 0.17 h,[28],936 ng/g
same,half-life,[29],81.6 min
same,concentration at 1 h,[30],657 ng/mL
same,Activity,Mus musculus [31],Non-toxic
same,Tmax,[32],10.2 min
CN1C(=O)CN=C(c2ccccc2)c2cc(Cl)ccc21 [DIAZEPAM],Activity,Mus musculus [7],Toxic
same,Activity,Mus musculus [31],Toxic
O=C(CO/N=C/c1ccc(OC(F)F)c(OC2CCCC2)c1)N1CCOCC1,inhibition,[1],63%
same,inhibition,[2],31%
same,inhibition,[3],36%
same,Activity,[4],2.06%
same,IC50,[6],1120 nM
CC1CN(NCC(O)CO/N=C/c2ccc(OC(F)F)c(OC3CCCC3)c2)CC(C)O1 (stereo not given),inhibition,[1],87%
same,inhibition,[2],51%
same,inhibition,[3],58%
same,Activity,[4],1.54%
same,IC50,[6],190 nM
O=C(CO/N=C/c1ccc(OC(F)F)c(OC2CCCC2)c1)N1CCC(O)CC1,inhibition,[1],60%
same,Activity,[33],0.01%
same,inhibition,[2],26%
same,inhibition,[3],28%
same,Activity,[4],4.62%
same,IC50,[6],2630 nM
COc1ccc(/C=N/OCC(O)CN2CC(C)OC(C)C2)cc1OC1CCCC1 (stereo not given),Activity,Mus musculus [7],Non-toxic
same,Activity,Mus musculus [31],Non-toxic
COc1ccc(/C=N/OCC(=O)N2CC(C)OC(C)C2)cc1OC1CCCC1 (stereo not given),Activity,Mus musculus [7],Non-toxic
same,concentration at 1 h,[8],3.29 ng/g
same,concentration at 0.67 h,[9],84.2 ng/g
same,Cmax,[10],936 ng/g
same,concentration at 5 h,[11],10.4 ng/mL
same,concentration at 3 h,[12],2.18 ng/mL
same,half-life,[13],49.2 min
same,concentration at 0.33 h,[14],396 ng/g
same,Cmax,[15],2160 ng/mL
same,concentration at 0.67 h,[16],343 ng/mL
same,Tmax,[17],10.2 min
same,Activity,[19],Non-toxic
same,Activity,[4],0.14%
same,AUC(0-t),[20],1890 ng·h/mL
same,inhibition,[21],Active
same,concentration at 2 h,[22],20 ng/mL
same,concentration at 0.17 h,[23],4410 ng/mL
same,concentration at 2 h,[24],2.21 ng/g
same,Kp,[25],0.358
same,AUCt,Brain,812 ng·h/g
same,concentration at 0.33 h,[26],1310 ng/mL
same,Activity,[5],Non-toxic
same,concentration at 3 h,[27],1.19 ng/g
same,concentration at 0.17 h,[28],1570 ng/g
same,half-life,[29],32.4 min
same,concentration at 1 h,[30],32.8 ng/mL
same,Activity,Mus musculus [31],Non-toxic
same,Tmax,[32],10.2 min
COc1cc([C@@H]2c3cc4c(cc3[C@@H](O[C@@H]3O[C@@H]5CO[C@@H](C)O[C@H]5[C@H](O)[C@H]3O)[C@H]3COC(=O)[C@H]23)OCO4)cc(OC)c1O [ETOPOSIDE],Activity,[5],Toxic
OC(CO/N=C/c1ccc(OC(F)F)c(OC2CCCC2)c1)CN1CCOCC1 (stereo not given),inhibition,[1],83%
same,inhibition,[2],43%
same,inhibition,[3],41%
same,Activity,[4],0.21%
same,Activity,[5],Non-toxic
same,IC50,[6],1490 nM
COc1ccc(C2CNC(=O)C2)cc1OC1CCCC1 (stereo not given) [ROLIPRAM],Activity,Mus musculus [7],Toxic
same,Activity,Mus musculus [31],Toxic
CC1CN(CC(O)CO/N=C/c2ccc(OC(F)F)c(OC3CCCC3)c2)CC(C)O1 (stereo not given),inhibition,[1],84%
same,Activity,Mus musculus [7],Toxic
same,Activity,[33],0.01%
same,inhibition,[2],68%
same,inhibition,[3],68%
same,Activity,[4],8.83%
same,IC50,[6],190 nM
same,Activity,Mus musculus [31],Toxic
OC1CCN(CC(O)CO/N=C/c2ccc(OC(F)F)c(OC3CCCC3)c2)CC1 (stereo not given),inhibition,[1],51%
same,Activity,[33],3.42%
same,inhibition,[2],15%
same,inhibition,[3],15%
same,Activity,[4],31.37%
same,IC50,[6],2540 nM

# From ChEMBL document CHEMBL3585339, “Synthesis, biological activities and pharmacokinetic properties of new fluorinated derivatives of selective PDE4D inhibitors” (Bioorg Med Chem, 2015)
